Non-standard residues stand in square brackets, D forms with d. Residues, ends and D or L forms follow the SMILES beside them. pGlu = O=C1CC[C@@H](C(=O)O)N1

Experiment [1] deals with apTKRPR-A T376 (Aplysia californica, UniProt A0AAU7SSZ1, DEL377-398). The experiment in a line: IP1 accumulation assay, C-terminal truncate apTKRPR-A T376. It is filed as cell-based. As for the experimental part: To express putative Aplysia receptors transiently in CHO-K1 cells, the cDNAs were subcloned into the pcDNA3.1(+) or pcDNA3.1(+)-FLAG (for ELISA experiments only, see “Cell surface expression analysis by ELISA” section) expression vector. On the day before transfection, the CHO-K1 cells were passaged into 60 mm diameter tissue culture–treated dishes, and the transfection experiments were performed when the cells were grown to 70 to 90% confluence. CHO-K1 cells were transfected with the cDNA plasmid constructs using Turbofect Transfection reagent (Thermo Fisher Scientific, R0531), following the manufacturer’s instructions. In brief, 4 μg of the putative receptor plasmids [in pcDNA3.1(+) or pcDNA3.1(+)-FLAG] were mixed with 400 μl of Opti-MEM (Gibco, 11058021), followed by the addition of 15 μl of TurboFect Transfection reagent and incubated at room temperature for 15 min. […]
apTKRPR-A T376, sequence (A0AAU7SSZ1 entry or part of it, stated change not applied): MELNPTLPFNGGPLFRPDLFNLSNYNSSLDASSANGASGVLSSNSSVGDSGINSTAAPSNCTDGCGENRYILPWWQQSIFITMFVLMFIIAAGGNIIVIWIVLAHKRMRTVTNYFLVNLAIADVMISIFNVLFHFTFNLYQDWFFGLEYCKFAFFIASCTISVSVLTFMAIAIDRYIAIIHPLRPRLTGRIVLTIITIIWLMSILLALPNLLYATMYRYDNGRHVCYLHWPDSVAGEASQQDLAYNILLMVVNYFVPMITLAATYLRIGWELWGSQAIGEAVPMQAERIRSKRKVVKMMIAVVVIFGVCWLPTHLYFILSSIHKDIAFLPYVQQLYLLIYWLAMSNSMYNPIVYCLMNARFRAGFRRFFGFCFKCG
The next day, transfected cells were trypsinized and reseeded in an opaque white 96-well half-area (Corning, 3688) or 384-well tissue culture–treated plates (Corning, 3570) at a density of 20,000 cells/well in F-12K and 10% FBS and incubated at 37 °C in a humidified incubator containing 5% CO2 overnight. On the third day, the activation of the putative receptors was detected by monitoring intracellular IP1 concentration using an IP-One Gq kit (Cisbio, 62IPAPEB) in Tecan Spark. […]

Experiment [2] has as its target T1, apTKRPR-B (Aplysia californica, UniProt A0AAU7STS1).
T1 sequence (A0AAU7STS1 1-447): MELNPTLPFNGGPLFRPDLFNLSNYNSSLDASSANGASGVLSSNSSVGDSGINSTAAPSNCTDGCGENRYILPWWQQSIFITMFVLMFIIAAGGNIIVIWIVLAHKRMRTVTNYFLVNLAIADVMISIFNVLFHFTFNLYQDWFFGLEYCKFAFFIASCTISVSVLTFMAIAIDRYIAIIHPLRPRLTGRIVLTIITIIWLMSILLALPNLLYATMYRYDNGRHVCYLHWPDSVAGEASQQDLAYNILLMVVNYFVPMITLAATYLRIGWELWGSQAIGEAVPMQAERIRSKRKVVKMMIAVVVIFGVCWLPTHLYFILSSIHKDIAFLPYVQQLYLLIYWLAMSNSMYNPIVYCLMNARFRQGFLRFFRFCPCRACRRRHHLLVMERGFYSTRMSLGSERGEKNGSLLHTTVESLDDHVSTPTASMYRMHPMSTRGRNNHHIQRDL
The experiment in a line: Cell surface expression by ELISA after ligand exposure, FLAG-apTKRPR-B. It is filed as cell-based. The conditions noted are these: 10 µM, different durations, compared with 0 min, n = 4. How it is done:
Cell surface expression determination of apTKRPRs and mutant receptors, all with FLAG tags, was performed using a procedure modified from previous work ([64], [122], [123], [124]). Specifically, CHO-K1 cells were cultured in F-12K medium (Gibco, 21127-022) with 10% FBS (Genial, G11-70500) at 37 °C in a humidified incubator containing 5% CO2. When the cells were grown to 70 to 90% confluence, transfection experiments were performed (see “Cell culture and transfection” section). After 24 h, transfected cells were plated in 96-well white clear-bottom cell culture plates (Corning, 3610) at a density of 20,000 cells in 100 μl per well and incubated overnight. The following day, culture media was aspirated and cells were washed twice with 200 μl of 1× PBS (Procell, PB180327). Then, 100 μl of 1× PBS containing 5% (w/v) BSA was added to each well and incubated at room temperature. After 30 min, 100 μl of 1:10,000 anti-FLAG M2-horseradish peroxidase conjugate (Sigma-Aldrich, Cat A8592) was added to each well and incubated for 30 min at 37 °C. Cells were washed twice with 200 μl of 1× PBS and then incubated with 200 μl of TMB Chromogen Solution (Sangon Biotech, E661007) for 30 min at 37 °C in the dark. Finally, 50 μl of ELISA Stopping Solution (Sangon Biotech, E661006) was added to each well to stop the reaction. The absorbance at 450 nm was measured using a Tecan Spark microplate reader. […]

In experiment [1], `CC(C)C[C@H](NC(=O)[C@H](Cc1c[nH]cn1)NC(=O)[C@@H]1CCCN1C(=O)[C@@H]1CCC(=O)N1)C(=O)NCC(=O)N[C@@H](Cc1ccccc1)C(=O)N[C@@H](Cc1c[nH]cn1)C(=O)NCC(=O)N[C@@H](CO)C(=O)N[C@@H](CCCNC(=N)N)C(N)=O` [apTKRP-2b] ([pGlu]PHLGFHGSR-NH2) showed an EC50 of 18.2 nM. Also, in experiment [2], the “cell surface receptor expression of apTKRPR-B after agonist exposure” value is recorded as “significant loss of receptor expression”.

The record behind these values is publication PMC11365428 (The Journal of Biological Chemistry, 2024).
